Reference: patent publication US20050065185A1, “Heterocyclylalkoxy-, -alkylthio- and -alkylaminobenzazole derivatives as 5-hydroxytryptamine-6 ligands” (Wyeth, priority 2001, published 2005)
pKi: −log10 of the molar value. Structures can show the parent of a compound that is named as a salt.

Tests used:
[1] = target: T1, human cloned 5-HT6 receptors (Homo sapiens, UniProt P50406); assay: 5-HT6 binding affinity, [3H]-LSD displacement on membranes of Hela cells expressing human cloned 5-HT6 receptors
T1 construct: expressed in transfected cells; host or cells: HeLa cells
T1 sequence (P50406 whole entry): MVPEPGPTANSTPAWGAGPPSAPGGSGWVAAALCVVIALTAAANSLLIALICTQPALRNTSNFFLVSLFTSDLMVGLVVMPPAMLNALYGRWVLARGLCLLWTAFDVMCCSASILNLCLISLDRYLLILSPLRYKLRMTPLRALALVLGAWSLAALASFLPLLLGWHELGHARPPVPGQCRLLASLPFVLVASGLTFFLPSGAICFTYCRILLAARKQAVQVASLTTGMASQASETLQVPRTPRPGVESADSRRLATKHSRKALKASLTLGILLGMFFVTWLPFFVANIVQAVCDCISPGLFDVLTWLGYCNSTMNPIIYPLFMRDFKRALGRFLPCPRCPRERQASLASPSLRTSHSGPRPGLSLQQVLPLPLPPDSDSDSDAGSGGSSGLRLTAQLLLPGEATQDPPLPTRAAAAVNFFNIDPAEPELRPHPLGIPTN
Procedure: The affinity of test compounds for the serotonin 5-HT6 receptor is evaluated in the following manner. Cultured Hela cells expressing human cloned 5-HT6 receptors are harvested and centrifuged at low speed (1,000×g) for 10.0 min to remove the culture media. The harvested cells are suspended in half volume of fresh physiological phosphate buffered saline solution and recentrifuged at the same speed. This operation is repeated. The collected cells are then homogenized in ten volumes of 50 mM Tris.HCl (pH 7.4) and 0.5 mM EDTA. The homogenate is centrifuged at 40,000×g for 30.0 min and the precipitate is collected. The obtained pellet is resuspended in 10 volumes of Tris.HCl buffer and recentrifuged at the same speed. The final pellet is suspended in a small volume of Tris.HCl buffer and the tissue protein content is determined in aliquots of 10-25 μl volumes. Bovine Serum Albumin is used as the standard in the protein determination according to the method described in Lowry et al., J. Biol. Chem., 193:265 (1951). The volume of the suspended cell membranes is adjusted to give a tissue protein concentration of 1.0 mg/ml of suspension. The prepared membrane suspension (10 times concentrated) is aliquoted in 1.0 ml volumes and stored at −70° C. until used in subsequent binding experiments.
The reaction is allowed to proceed in the dark for 120 min at room temperature, at which time, the bound ligand-receptor complex is filtered off on a 96 well unifilter with a Packard Filtermate® 196 Harvester. The bound complex caught on the filter disk is allowed to air dry and the radioactivity is measured in a Packard TopCount® equipped with six photomultiplier detectors, after the addition of 40.0 μl Microscint®-20 scintillant to each shallow well. The unifilter plate is heat-sealed and counted in a PackardTopCount® with a tritium efficiency of 31.0%.
Binding in the presence of varying concentrations of test compound is expressed as a percentage of specific binding in the absence of test compound. The results are plotted as log % bound versus log concentration of test compound. […] A linear regression line of data points is plotted, from which the IC50 value is determined and the Ki value is determined based upon the following equation: Ki=IC50/(1+L/KD) where L is the concentration of the radioactive ligand used and KD is the dissociation constant of the ligand for the receptor, both expressed in nM.

Structure (SMILES) | melting point | pKi [1]
O=S(=O)(c1ccc(F)cc1)n1ccc2c(OC[C@@H]3CCCN3)cccc21 (as salt: hydrochloride) [Example 7, 1-[(4-fluorophenyl)sulfonyl)-4-[(2S)-pyrrolidin-2-ylmethoxy]-1H-indole] | 258 °C (dec.) | 
Nc1ccc(S(=O)(=O)n2ncc3c(OC[C@@H]4CCCN4)cccc32)cc1Cl (as salt: hydrochloride) [Example 21, 2-chloro-4-({4-[(2S)-pyrrolidin-2-ylmethoxy]-1H-indazol-1-yl}sulfonyl)aniline] | 220 °C (dec.) | 
O=S(=O)(c1ccc(F)cc1)n1ccc2c(OC[C@@H]3CCCN3)cccc21 [Example 7, 1-[(4-fluorophenyl)sulfonyl)-4-[(2S)-pyrrolidin-2-ylmethoxy]-1H-indole] |  | 7.51
O=S(=O)(c1ccc(Cl)s1)n1ncc2c(OC[C@@H]3CCCN3)cccc21 (as salt: hydrochloride) [Example 19, 1-[(5-chlorothien-2-yl)sulfonyl]-4-[(2S)-pyrrolidin-2-ylmethoxy]-1H-indazole] | 195 °C | 
O=S(=O)(c1ccc(Cl)s1)n1ccc2c(OC[C@@H]3CCCN3)cccc21 [Example 4, 1-[(5-chlorothien-2-yl)sulfonyl]-4-[(2S)-pyrrolidin-2-ylmethoxy]-1H-indole] |  | 8.15
Nc1ccc(S(=O)(=O)n2ncc3c(OC[C@@H]4CCCN4)cccc32)cc1 [Example 20, 4-({4-[(2S)-pyrrolidin-2-ylmethoxy}-1H-indazol-1-yl}sulfonyl)aniline] |  | 8.05
O=S(=O)(c1ccccc1F)n1ccc2c(OC[C@@H]3CCCN3)cccc21 [Example 5, 1-[(2-fluorophenyl)sulfonyl)-4-[(2S)-pyrrolidin-2-ylmethoxy]-1H-indole] |  | 8.70
Nc1ccc(S(=O)(=O)n2ncc3c(OC[C@@H]4CCCN4)cccc32)cc1Cl [Example 21, 2-chloro-4-({4-[(2S)-pyrrolidin-2-ylmethoxy]-1H-indazol-1-yl}sulfonyl)aniline] |  | 7.80
O=S(=O)(c1ccc(Cl)s1)n1ncc2c(OC[C@@H]3CCCN3)cccc21 [Example 19, 1-[(5-chlorothien-2-yl)sulfonyl]-4-[(2S)-pyrrolidin-2-ylmethoxy]-1H-indazole] |  | 8.30
O=S(=O)(c1ccccc1F)n1ncc2c(OC[C@@H]3CCCN3)cccc21 [Example 18, 1-[(2-fluorophenyl)sulfonyl]-4-[(2S)-pyrrolidin-2-ylmethoxy]-1H-indazole] |  | 8.10
O=S(=O)(c1cccc(F)c1)n1ccc2c(OC[C@@H]3CCCN3)cccc21 [Example 6, 1-[(3-fluorophenyl)sulfonyl)-4-[(2S)-pyrrolidin-2-ylmethoxy]-1H-indole] |  | 8.10
O=S(=O)(c1ccccc1F)n1ccc2c(OC[C@@H]3CCCN3)cccc21 (as salt: hydrochloride) [Example 5, 1-[(2-fluorophenyl)sulfonyl)-4-[(2S)-pyrrolidin-2-ylmethoxy]-1H-indole] | 153 to 155 °C | 
O=S(=O)(c1ccccc1)n1ccc2c(OC[C@H]3CCCN3)cccc21 [Example 11, 1-(Phenylsulfonyl)-4-[(2R)-]pyrrolidin-2-ylmethoxy]-1H-indole hydrochloride] |  | 6.97
O=S(=O)(c1cccc2cccnc12)n1ncc2c(OC[C@@H]3CCCN3)cccc21 [Example 16, 8-({4-[(2S)-pyrrolidin-2-ylmethoxy]-1H-indazol-1-yl}sulfonyl)quinoline] | 217 to 218 °C | 7.07
O=S(=O)(c1ccc(Cl)s1)n1ccc2c(OC[C@@H]3CCCN3)cccc21 (as salt: hydrochloride) [Example 4, 1-[(5-chlorothien-2-yl)sulfonyl]-4-[(2S)-pyrrolidin-2-ylmethoxy]-1H-indole] | 204 to 206 °C | 
O=S(=O)(c1ccccc1)n1ncc2c(OC[C@@H]3CCCN3)cccc21 [Example 15, 1-(Phenylsulfonyl)-4-[(2S)-pyrrolidin-2-ylmethoxy]-1H-indazole trifluoroacetic acid salt] |  | 8.15
COc1ccc(S(=O)(=O)n2ccc3c(OC[C@@H]4CCCN4)cccc32)cc1OC (as salt: hydrochloride) [Example 8, 1-[(3,4-dimethoxyphenyl)sulfonyl)-4-[(2S)-pyrrolidin-2-ylmethoxy]-1H-indole] | 115 °C (dec.) | 
O=S(=O)(c1ccccc1F)n1ncc2c(OC[C@@H]3CCCN3)cccc21 (as salt: hydrochloride) [Example 18, 1-[(2-fluorophenyl)sulfonyl]-4-[(2S)-pyrrolidin-2-ylmethoxy]-1H-indazole] | 145 to 148 °C | 
COc1ccc(S(=O)(=O)n2ccc3c(OC[C@@H]4CCCN4)cccc32)cc1OC [Example 8, 1-[(3,4-dimethoxyphenyl)sulfonyl)-4-[(2S)-pyrrolidin-2-ylmethoxy]-1H-indole] |  | 7.02
Nc1ccc(S(=O)(=O)n2ncc3c(OC[C@@H]4CCCN4)cccc32)cc1 (as salt: hydrochloride) [Example 20, 4-({4-[(2S)-pyrrolidin-2-ylmethoxy}-1H-indazol-1-yl}sulfonyl)aniline] | 150 to 155 °C | 
Nc1ccc(S(=O)(=O)n2ccc3c(OC[C@@H]4CCCN4)cccc32)cc1 (as salt: hydrochloride) [Example 9] | 150 °C (dec.) | 
Nc1ccc(S(=O)(=O)n2ccc3c(OC[C@@H]4CCCN4)cccc32)cc1 [Example 9] |  | 9.00
O=S(=O)(c1ccccc1Cl)n1ncc2c(OC[C@@H]3CCCN3)cccc21 [Example 17, 1-[(2-chlorophenyl)sulfonyl]-4-[(2S)-pyrrolidin-2-ylmethoxy]-1H-indazole] |  | 8.30
O=S(=O)(c1ccccc1)n1ccc2c(OC[C@@H]3CCCN3)cccc21 [Example 3, 1-(Phenylsulfonyl)-4-[(2S)-pyrrolidin-2-ylmethoxy]-1H-indole hydrochloride] |  | 8.22
O=S(=O)(c1ccccc1Cl)n1ncc2c(OC[C@@H]3CCCN3)cccc21 (as salt: hydrochloride) [Example 17, 1-[(2-chlorophenyl)sulfonyl]-4-[(2S)-pyrrolidin-2-ylmethoxy]-1H-indazole] | > 255 °C (dec.) | 
O=S(=O)(c1cccc(F)c1)n1ccc2c(OC[C@@H]3CCCN3)cccc21 (as salt: hydrochloride) [Example 6, 1-[(3-fluorophenyl)sulfonyl)-4-[(2S)-pyrrolidin-2-ylmethoxy]-1H-indole] | 160 to 162 °C | 
